Biological target: IL-2Rαβ (Homo sapiens, UniProt P01589+P14784)
Details: relative to IL-2 as standard
Source text: The term “CD-122-biased cytokine agonist”, as used herein, refers to an agonist that has a greater affinity for binding to IL-2Rβ than to IL-2Rαβ.

Sequence of IL-2Rαβ (P01589 22-240 limits assumed): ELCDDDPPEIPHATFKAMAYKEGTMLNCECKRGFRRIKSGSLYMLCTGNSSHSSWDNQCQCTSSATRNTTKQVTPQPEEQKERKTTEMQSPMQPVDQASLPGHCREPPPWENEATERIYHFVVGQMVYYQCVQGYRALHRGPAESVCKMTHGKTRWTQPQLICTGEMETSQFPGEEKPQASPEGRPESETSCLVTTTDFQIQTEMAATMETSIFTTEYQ
Sequence of IL-2Rαβ (P14784 27-240 limits assumed): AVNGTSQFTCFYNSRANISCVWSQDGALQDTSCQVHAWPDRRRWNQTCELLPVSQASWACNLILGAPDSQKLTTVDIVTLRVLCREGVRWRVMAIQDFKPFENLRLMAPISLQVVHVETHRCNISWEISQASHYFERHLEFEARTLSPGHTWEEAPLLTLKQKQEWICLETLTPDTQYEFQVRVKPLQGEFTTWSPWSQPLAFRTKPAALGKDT

For “(2,7-(bis-methoxyPEG10kD-carboxyamide)(9H-fluorene-9-yl)methyl N-carbamate)6avginterleukin-2 [bempegaldesleukin]”, the “decrease in affinity to IL-2Rαβ relative to IL-2” value was ~60 fold.

Reference: patent US20210355223A1, “Combinations for Treating Cancer” (Pfizer Inc., priority 2018, published 2021)
